Results published in US4849410A, “Pseudopterosin and synthetic derivatives thereof” (The Regents of the University of California, priority 1987, dated 1989).

Key:
P388 leukemia = experiment: Evaluation in mice bearing ip P388 leukemia; format: in vivo, female B6D2F1 mice; conditions: for Increase to Lifespan / Median Survival Time / Weight Change Day 5 / Weight Change Day 9: Days 1-5
Protocol: Compound I was also evaluated in mice bearing P388 Leukemia as follows:
Compound I was administered to the mice as a solution by first dissolving it in N,N-dimethylacetamide, adding an equal volume of Cremophor EL and then 8 volumes of water. The drug concentration was such that the desired dose was delivered in a volume of 0.5 ml per mouse. Dilutions from the highest dose in a dose-response study were made by the addition of water so that organic component of the formulation decreased with dose reduction; the drug remained in solution.
10^6 P388 leukemia cells were implanted intraperitoneal in female B6D2F1 mice which were randomized to treatment groups of six animals each. Treatment was initiated 24 hours after tumor implantation and was continued daily for five days (Cisplatin was administered on Days 1 and 5 for the Group 1 mice). Mice were weighted as groups on Days 1, 5 and 9 to provide an indication of drug toxicity. Mice were monitored for survival daily for 45 days, and the median day of death was determined compared to three groups of untreated controls to provide percent increase in lifespan (ILS). ILS values of greater than or equal to 40 percent represent actual reduction in tumor cell burden during the course of treatment and are taken as indications of biologically significant antitumor effect.

[1] = Side effects, subcutaneous administration to mice; format: in vivo
Description: The following side effect of pseudopterosin A (Compound I) was observed.

[2] = test system: Intraperitoneally Administered Phenylquinone; experiment: Phenylquinone Assay for Analgesia (writhing); format: in vivo, mice; conditions: for Mean No. Responses ± S.E.M.: phenylquinone 2.0 mg/kg
Protocol: d. Phenylquinone Assay for Analgesia
Test compound is injected subcutaneously into mice. After 30 minutes, phenylquinone is injected intraperitoneally to cause pain as indicated by writhing.
Test compound was administered subcutaneously in sesame oil at concentrations up to 5 mg per ml depending on the test compound dosage protocol. The highest dose was 50 mg per Kg. Control groups received sesame oil subcutaneously.

[3] = test system: Fertilized Sea Urchin Egg; experiment: Fertilized Sea Urchin Egg Inhibition of Cleavage Assay for Anti-proliferation; format: cell-based; conditions: doses as low as
Protocol: c. Fertilized Sea Urchin Egg Inhibition of Cleavage Assay for Anti-proliferation
Sea urchins are induced to spawn by injection of 0.5M KCl into the coelomic cavity. Test compound is added to a 1% slurry of eggs within 5 minutes following fertilization and incubated until the completion of the division in control slurry, 90-120 minutes. Inhibition is measured as the present of undivided cells in the slurry at the end of this incubation.
The vheicle or carrier for the compounds used in the inflammatory and analgesic assays was as follows; For the mouse ear inflammatory assay, the vehicle was acetone. Controls received 25 microliters of acetone. Test compounds were applied to the experimental animals in 25 microliter volumes. For the sperm motility and fertilized sea urchin egg assays, the compounds were dissolved in 10 microliters undenatured ethanol.

B16 melanoma = experiment: Activity in mice bearing ip B16 melanoma; format: in vivo, female B6D2F1 mice
Protocol: (§1) Compound I was also evaluated for activity against solid tumors as follows:
(§2) One-half ml of a 10 percent (v:v) brei of tumor cells prepared from solid B16 melanoma or M5076 reticulum cell sarcoma was implanted ip in female B6D2F1 mice which were randomized to treatment groups of 8 animals each. Treatment was initiated 24 hours after tumer inoculation and was continued daily for 10 days (cisplatin was administered q4Dx4 on Days 1, 5, 9 and 13). Mice were monitored daily for 60 days, and the median day of death was determined compared to three groups of untreated controls to provide percent increase in lifespan (ILS). ILS values of greater than or equal to 50 percent represent biologically significant antitumor effects. Cisplatin was curative in M5076 with 6/8 tumor-free survivors on Day 60 at the top dose level.

[4] = test system: M5076 reticulum cell sarcoma; experiment: Activity in mice bearing ip M5076 reticulum cell sarcoma; format: in vivo, female B6D2F1 mice
Protocol: as §1, §2

[5] = 12.5 mg/kg to 50 mg/kg subcutaneously

CC(C)=C[C@H]1C[C@H](C)[C@H]2CC[C@H](C)c3c(O[C@@H]4OC[C@@H](O)[C@H](O)[C@H]4O)c(O)c(C)c1c32 [Compound I, pseudopterosin A]
Increase to Lifespan (P388 leukemia; Group 2, 7.9 mg/kg ip): 10% | Median Survival Time (P388 leukemia; Group 2, 7.9 mg/kg ip): 11 days | Weight Change Day 5 (P388 leukemia; Group 2, 7.9 mg/kg ip): +1.1 gm | Weight Change Day 9 (P388 leukemia; Group 2, 7.9 mg/kg ip): +3.6 gm | Increase to Lifespan (P388 leukemia; Group 2, 11.9 mg/kg ip): 15% | Median Survival Time (P388 leukemia; Group 2, 11.9 mg/kg ip): 11.5 days | Weight Change Day 5 (P388 leukemia; Group 2, 11.9 mg/kg ip): +0.7 gm | Weight Change Day 9 (P388 leukemia; Group 2, 11.9 mg/kg ip): +2.5 gm | Increase to Lifespan (P388 leukemia; Group 2, 17.8 mg/kg ip): 15% | Median Survival Time (P388 leukemia; Group 2, 17.8 mg/kg ip): 11.5 days | Weight Change Day 5 (P388 leukemia; Group 2, 17.8 mg/kg ip): 0 gm | Weight Change Day 9 (P388 leukemia; Group 2, 17.8 mg/kg ip): +2.8 gm | Increase to Lifespan (P388 leukemia; Group 2, 26.7 mg/kg ip): 25% | Median Survival Time (P388 leukemia; Group 2, 26.7 mg/kg ip): 12.5 days | Weight Change Day 5 (P388 leukemia; Group 2, 26.7 mg/kg ip): -0.7 gm | Weight Change Day 9 (P388 leukemia; Group 2, 26.7 mg/kg ip): +3.4 gm | Increase to Lifespan (P388 leukemia; Group 2, 40 mg/kg ip): 30% | Median Survival Time (P388 leukemia; Group 2, 40 mg/kg ip): 13 days | Weight Change Day 5 (P388 leukemia; Group 2, 40 mg/kg ip): -2.1 gm | Weight Change Day 9 (P388 leukemia; Group 2, 40 mg/kg ip): +2.2 gm | Increase to Lifespan (P388 leukemia; Group 2, 60 mg/kg ip): 65% | Median Survival Time (P388 leukemia; Group 2, 60 mg/kg ip): 16.5 days | Weight Change Day 5 (P388 leukemia; Group 2, 60 mg/kg ip): -3.2 gm | Weight Change Day 9 (P388 leukemia; Group 2, 60 mg/kg ip): -0.5 gm | Increase to Lifespan (P388 leukemia; Group I, 1.5 mg/kg ip): 27% | Median Survival Time (P388 leukemia; Group I, 1.5 mg/kg ip): 14 days | Weight Change Day 5 (P388 leukemia; Group I, 1.5 mg/kg ip): +0.1 gm | Weight Change Day 9 (P388 leukemia; Group I, 1.5 mg/kg ip): +4.6 gm | Increase to Lifespan (P388 leukemia; Group I, 3 mg/kg ip): 27% | Median Survival Time (P388 leukemia; Group I, 3 mg/kg ip): 14 days | Weight Change Day 5 (P388 leukemia; Group I, 3 mg/kg ip): +0.4 gm | Weight Change Day 9 (P388 leukemia; Group I, 3 mg/kg ip): +4.2 gm | Increase to Lifespan (P388 leukemia; Group I, 6 mg/kg ip): 36% | Median Survival Time (P388 leukemia; Group I, 6 mg/kg ip): 15 days | Weight Change Day 5 (P388 leukemia; Group I, 6 mg/kg ip): +0.7 gm | Weight Change Day 9 (P388 leukemia; Group I, 6 mg/kg ip): +2.9 gm | Increase to Lifespan (P388 leukemia; Group I, 12 mg/kg ip): 45% | Median Survival Time (P388 leukemia; Group I, 12 mg/kg ip): 16 days | Weight Change Day 5 (P388 leukemia; Group I, 12 mg/kg ip): -2.6 gm | Weight Change Day 9 (P388 leukemia; Group I, 12 mg/kg ip): +1.3 gm | Increase to Lifespan (P388 leukemia; Group I, 24 mg/kg ip): 82% | Median Survival Time (P388 leukemia; Group I, 24 mg/kg ip): 20 days | Weight Change Day 5 (P388 leukemia; Group I, 24 mg/kg ip): +0.4 gm | Weight Change Day 9 (P388 leukemia; Group I, 24 mg/kg ip): -0.6 gm | maximally tolerated dose (P388 leukemia; a daily dose in this range, from weight loss): ~60 mg/kg/day | activity in mice bearing intraperitoneal P388 leukemia (P388 leukemia; mouse, in vivo, ip): demonstrated reproducible activity | activity in mice bearing intraperitoneal P388 leukemia (P388 leukemia; second group, 60 mg/kg/day): significant activity | activity in mice bearing intraperitoneal P388 leukemia (P388 leukemia; second group, dose similar to 24 mg/kg/day): ineffective | duration of side effects [1, 5]: last up to one hour | onset of side effects [1, 5]: within a few minutes of administration | side effects ([1]; 12.5 mg/kg to 50 mg/kg subcutaneously, sesame oil): central nervous system excitation, brief involuntary muscle contraction of the hind limbs resulting in lateral jumping movements, excessive preening of wound sites, and flushing of the tail and ears | side effects ([1]; doses as low as 3 mg/kg): slight to moderate central nervous system excitation | Mean No. Responses ± S.E.M. ([2]; 3.1 mg/kg): 8.55 ± 1.38 | Mean No. Responses ± S.E.M. ([2]; 6.3 mg/kg): 5.87 ± 1.24 | Mean No. Responses ± S.E.M. ([2]; 12.5 mg/kg): 5.87 ± 0.77 | Mean No. Responses ± S.E.M. ([2]; 25.0 mg/kg): 1.80 ± 1.31 | Mean No. Responses ± S.E.M. ([2]; 50.0 mg/kg): 0 | analgesia against chemically induced pain ([2]; mouse, in vivo): provides analgesia | Analgesic Activity ([2]; summary): Active | dose that totally inhibits cell division [3]: 7 µM | Increase to Lifespan (B16 melanoma; 6.48 mg/kg ip): -2% | Median Survival Time (B16 melanoma; 6.48 mg/kg ip): 21.5 days | Weight Change on Day 9 (B16 melanoma; 6.48 mg/kg ip): +1.2 gm | Increase to Lifespan (B16 melanoma; 10.8 mg/kg ip): -7% | Median Survival Time (B16 melanoma; 10.8 mg/kg ip): 20.5 days | Weight Change on Day 9 (B16 melanoma; 10.8 mg/kg ip): +1.0 gm | Increase to Lifespan (B16 melanoma; 18 mg/kg ip): -2% | Median Survival Time (B16 melanoma; 18 mg/kg ip): 21.5 days | Weight Change on Day 9 (B16 melanoma; 18 mg/kg ip): +0.9 gm | Increase to Lifespan (B16 melanoma; 30 mg/kg ip): 11% | Median Survival Time (B16 melanoma; 30 mg/kg ip): 24.5 days | Weight Change on Day 9 (B16 melanoma; 30 mg/kg ip): +0.5 gm | Increase to Lifespan (B16 melanoma; 50 mg/kg ip): -4% | Median Survival Time (B16 melanoma; 50 mg/kg ip): 21 days | Weight Change on Day 9 (B16 melanoma; 50 mg/kg ip): -0.4 gm | antitumor activity (B16 melanoma; B16 melanoma): did not demonstrate significant antitumor activity | Increase to Lifespan ([4]; 8.64 mg/kg ip): -2% | Median Survival Time ([4]; 8.64 mg/kg ip): 20.5 days | Weight Change on Day 9 ([4]; 8.64 mg/kg ip): +0.1 gm | Increase to Lifespan ([4]; 14.4 mg/kg ip): 0% | Median Survival Time ([4]; 14.4 mg/kg ip): 21 days | Weight Change on Day 9 ([4]; 14.4 mg/kg ip): +0.2 gm | Increase to Lifespan ([4]; 24 mg/kg ip): 0% | Median Survival Time ([4]; 24 mg/kg ip): 21 days | Weight Change on Day 9 ([4]; 24 mg/kg ip): +0.6 gm | Increase to Lifespan ([4]; 40 mg/kg ip): -2% | Median Survival Time ([4]; 40 mg/kg ip): 20.5 days | Weight Change on Day 9 ([4]; 40 mg/kg ip): -1.1 gm | Increase to Lifespan ([4]; 66.7 mg/kg ip): 2% | Median Survival Time ([4]; 66.7 mg/kg ip): 21.5 days | Weight Change on Day 9 ([4]; 66.7 mg/kg ip): -2.9 gm | antitumor activity ([4]; M5076 reticulum cell sarcoma): did not demonstrate significant antitumor activity
